Values of other authors, collected in article PMC4232468 (Nature chemical biology, 2014).

Cc1ccc2c(=O)c3cccc(CC(=O)O)c3oc2c1C [DMXAA, 5,6-dimethylxanthenone-4-acetic acid]
activation of mouse STING (mouse STING (mSTING)): activates mouse STING (mSTING) | activation of human STING (human STING (hSTING)): not human STING (hSTING)
